# From doi:10.1101/2025.03.13.643086, “Granzyme-targeting quenched activity-based probes for assessing tumor response to immunotherapy” (bioRxiv, 2025)
# Non-standard residues stand in square brackets, D forms with d. Residues, ends and D or L forms follow the SMILES beside them. *: point of attachment. Abu(4-SO3H) = N[C@@H](CCS(=O)(=O)O)C(=O)O; ACC = NC(=O)Cc1cc(=O)oc2cc(N*)ccc12; Cya = N[C@@H](CS(=O)(=O)O)C(=O)O
# B1: Casp-8 (Homo sapiens) (protein)
# chain 1: SESQTLDKVYQMKSKPRGYCLIINNHNFAKAREKVPKLHSIRDRNGTHLDAGALTTTFEELHFEIKPHDDCTVEQIYEILKIYQLMDHSNMDCFICCILSHGDKGIIYGTDGQEAPIYELTSQFTGLKCPSLAGKPKVFFIQACQGDNYQKGIPVETD
# chain 2: LSSPQTRYIPDEADFLLGMATVNNCVSYRNPAEGTWYIQSLCQSLRERCPRGDDILTILTEVNYEVSNKDDKKNMGKQMPQPTFTLRKKLVFPSD
# Legend:
# Casp-8 = Casp-8 (Homo sapiens, UniProt Q14790); experiment: Enzyme cleavage assay / Michaelis-Menten kinetics of fluorogenic substrates with Casp-8; type: biochemical; settings: 100 μM substrate, 5 nM Casp-8, 1 h, V0 normalized to 1
# Description: (§1) Figure 1. Isosteric substitution of carboxylic acid at P1 with sulfonic acid enhances selectivity for GzmB over Casp-8. (A) Chemical structures of tetrapeptide fluorogenic substrates 1-4. (B) Enzyme cleavage assay. 100 μM of each substrate was incubated with either recombinant human active GzmB (10 nM) or Casp-8 (5 nM) and fluorescence was measured at Ex/Em: 380/460 nm for 1 h. The initial velocity (V0) of each substrate was normalized to that of the control substrate Ac-IEPD-ACC (1). […] (C) Kinetic measurement. The Michaelis-Menten plot and kinetic parameters were generated with varying concentrations of each substrate 1 and 2 incubated with recombinant human active GzmB (10 nM) and Casp-8 (5 nM). […] (D) Chemical structures of inhibitors 5-7. (E) GzmB inhibition. Recombinant human active GzmB (2 U/μL) was incubated with varying concentrations of each inhibitor and the residual activity of GzmB was measured by the cleavage of Ac-IEPD-AMC fluorogenic substrate and normalized to DMSO control.
# (§2) All kinetic experiments were performed on a spectrofluorometer (Biotek cytation5 or Synergy|Mx microplate reader) and analyzed using Microsoft Excel and GraphPad Prism. […]
# (§3) (v/v) Tween-20, pH 7.5. Assay buffers were prepared at room temperature while the kinetic experiments were performed at 37 °C. Data are presented as the mean with standard deviation (at least two independent experiments). […]
# (§4) (#BML-SE238-5000) and diluted in assay buffer. Conditions for individual experiments are […]
# (§5) Figure 1B-C: 10 nM of active GzmB or 5 nM of Casp-8 were treated with different substrates (compounds 1-4) and recorded fluorescence (Ex/Em: 380/460 nm) for 1 h at 37 °C. To determine Michaelis-Menten constants, cleavage assays with 10 nM of GzmB or 5 nM of Casp-8 were performed with different concentrations of substrates 1 and 2. […]
# Working concentrations were prepared by further diluting in the assay buffer before use. […] In-gel fluorescence images were acquired on a Typhoon FLA9500 instrument while western blot and Coomassie staining images were acquired on an AMHERST ImageQuant 800 instrument.
# [1] = biological target: recombinant human active GzmB (Homo sapiens, UniProt P10144); experiment: Enzyme cleavage assay / Michaelis-Menten kinetics of fluorogenic substrates with GzmB; type: biochemical; settings: 10 nM GzmB
# recombinant human active GzmB, sequence (P10144 21-247): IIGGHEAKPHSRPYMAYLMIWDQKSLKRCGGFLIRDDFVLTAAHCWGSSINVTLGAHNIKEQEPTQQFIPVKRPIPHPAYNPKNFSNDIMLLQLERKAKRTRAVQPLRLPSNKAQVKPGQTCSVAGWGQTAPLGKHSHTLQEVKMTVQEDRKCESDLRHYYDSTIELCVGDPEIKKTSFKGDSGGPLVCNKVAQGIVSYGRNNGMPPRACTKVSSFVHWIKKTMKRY
# Description: as §1, §2
# (v/v) Tween-20, pH 7.5. Assay buffers were prepared at room temperature while the kinetic experiments were performed at 37 °C. Data are presented as the mean with standard deviation (at least two independent experiments). For kinetic experiments, pro-GzmB (0.22 mg/mL) was activated with mouse cathepsin C (22 µg/mL in 50 mM MES, 50 mM NaCl, pH 5.5) and diluted in assay buffer. Alternatively, active GzmB at 100 U/µL was purchased from Enzo Life Sciences (#BML-SE238-5000) and diluted in assay buffer. Conditions for individual experiments are […]
# as §5
# (§6) Working concentrations were prepared by further diluting in the assay buffer before use. Mouse pro-GzmB (0.474 mg/mL) was also activated with mCatC (52.14 µg/mL in 50 mM MES, 50 mM NaCl, pH 5.5), diluted in assay buffer and stored as 500 nM aliquots at - 80 °C, which were further diluted in assay buffer to make final working concentrations. In-gel fluorescence images were acquired on a Typhoon FLA9500 instrument while western blot and Coomassie staining images were acquired on an AMHERST ImageQuant 800 instrument.
# [2] = substrate: CC[C@H](C)[C@H](NC(C)=O)C(=O)N[C@@H](CCC(=O)O)C(=O)N1CCC[C@H]1C(=O)N[C@@H](CS(=O)(=O)O)C(=O)Nc1ccc2c(CC(N)=O)cc(=O)oc2c1; experiment: Enzyme cleavage assay / Michaelis-Menten kinetics of fluorogenic substrates with Casp-8; type: biochemical, human; settings: other: 5 nM Casp-8, varying substrate concentrations, 37 °C
# Description: as §1, §2, §3, §4, §5, §6
# [3] = substrate: CC[C@H](C)[C@H](NC(C)=O)C(=O)N[C@@H](CCC(=O)O)C(=O)N1CCC[C@H]1C(=O)N[C@@H](CC(=O)O)C(=O)Nc1ccc2c(CC(N)=O)cc(=O)oc2c1; experiment: as above; type: biochemical, human; settings: other: 5 nM Casp-8, varying substrate concentrations, 37 °C
# Description: as §1, §2, §3, §4, §5, §6
# [4] = 100 μM substrate, 1 h, V0 normalized to 1
molecule,measurement,setting,value
CC[C@H](C)[C@H](NC(C)=O)C(=O)N[C@@H](CCS(=O)(=O)O)C(=O)N1CCC[C@H]1C(=O)N[C@@H](CS(=O)(=O)O)C(=O)Nc1ccc2c(CC(N)=O)cc(=O)oc2c1 [Compound 4] (Ac-I[Abu(4-SO3H)]P[Cya]-{ACC}),"cleavage by Casp-8 compared to Ac-IEPD-ACC (1), in words",Casp-8,decreasing cross-reactivity with Casp-8
same,"cleavage by GzmB compared to Ac-IEPD-ACC (1), in words",[1]; [4],routed for cleavage by GzmB
CC[C@H](C)[C@H](NC(C)=O)C(=O)N[C@@H](CCS(=O)(=O)O)C(=O)N1CCC[C@H]1C(=O)N[C@@H](CC(=O)O)C(=O)Nc1ccc2c(CC(N)=O)cc(=O)oc2c1 [Compound 3] (Ac-I[Abu(4-SO3H)]PD-{ACC}),"cleavage by Casp-8 compared to Ac-IEPD-ACC (1), in words",Casp-8,increased cleavage by Casp-8
same,"cleavage by GzmB compared to Ac-IEPD-ACC (1), in words",[1]; [4],reduced cleavage by GzmB
"CC[C@H](C)[C@H](NC(C)=O)C(=O)N[C@@H](CCC(=O)O)C(=O)N1CCC[C@H]1C(=O)N[C@@H](CS(=O)(=O)O)C(=O)Nc1ccc2c(CC(N)=O)cc(=O)oc2c1 [Compound 2, Ac-IEPCya-ACC] (Ac-IEP[Cya]-{ACC})","cleavage by Casp-8 compared to Ac-IEPD-ACC (1), in words",Casp-8,cleavage by Casp-8 was reduced
same,increase in turnover (kcat) for GzmB compared to Ac-IEPD-ACC (1),[1],10 fold
same,cleavage efficiency by GzmB compared to Ac-IEPD-ACC (1),[1]; [4],6 fold
B1,Km,[2],506.3 µM
same,kcat,[2],0.087 s⁻¹
same,kcat/Km,[2],172 M⁻¹ s⁻¹
same,Km,[3],359.9 µM
same,kcat,[3],0.090 s⁻¹
same,kcat/Km,[3],250 M⁻¹ s⁻¹
